For this assay, the system named is L1210 leukemia ip in BDF1 mice, survival T/C. The assay can be described thus: NCI In Vivo Anticancer Drug Screen. Data for tumor model L1210 Leukemia (intraperitoneal) in B6D2F1 (BDF1) mice. The note with it: endpoint: mean survival time, higher = longer survival. Summed up: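 Mice bearing the transplanted tumor received compound or vehicle. Survival of the treated group was divided by that of the vehicle-treated control group to give the ratio.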

Where [1] appears, read: dose: 75.0 mg/kg/injection, schedule: Q01DX001 (ip), vehicle: saline.
[2] abbreviates: dose: 40.0 mg/kg/injection, schedule: Q01DX009 (ip), vehicle: Klucel (hydroxypropylcellulose) (HPC).
Where [3] appears, read: dose: 100.0 mg/kg/injection, schedule: Q04DX003 (ip), vehicle: saline.
[4] abbreviates: dose: 200.0 mg/kg/injection, schedule: Q04DX003 (ip), vehicle: saline.
The mark [5] stands for this setting: dose: 400.0 mg/kg/injection, schedule: Q04DX003 (ip), vehicle: saline.
Setting [6] is: dose: 100.0 mg/kg/injection, schedule: Q01DX009 (ip), vehicle: saline with Tween-80.
The mark [7] stands for this setting: dose: 200.0 mg/kg/injection, schedule: Q01DX009 (ip), vehicle: saline with Tween-80.
Where [8] appears, read: dose: 400.0 mg/kg/injection, schedule: Q01DX009 (ip), vehicle: saline with Tween-80.
[9] abbreviates: dose: 50.0 mg/kg/injection, schedule: Q01DX001 (ip), vehicle: carboxymethylcellulose (CMC).
Where [10] appears, read: dose: 100.0 mg/kg/injection, schedule: Q01DX001 (ip), vehicle: carboxymethylcellulose (CMC).
The mark [11] stands for this setting: dose: 200.0 mg/kg/injection, schedule: Q01DX001 (ip), vehicle: carboxymethylcellulose (CMC).
The mark [12] stands for this setting: dose: 400.0 mg/kg/injection, schedule: Q01DX001 (ip), vehicle: carboxymethylcellulose (CMC).
[13] abbreviates: dose: 100.0 mg/kg/injection, schedule: Q01DX009 (ip), vehicle: Klucel (hydroxypropylcellulose) (HPC).
Setting [14] is: dose: 100.0 mg/kg/injection, schedule: Q04DX003 (ip), vehicle: Klucel (hydroxypropylcellulose) (HPC).
Where [15] appears, read: dose: 200.0 mg/kg/injection, schedule: Q04DX003 (ip), vehicle: Klucel (hydroxypropylcellulose) (HPC).
Where [16] appears, read: dose: 100.0 mg/kg/injection, schedule: Q01DX009 (ip), vehicle: saline.
The mark [17] stands for this setting: dose: 200.0 mg/kg/injection, schedule: Q01DX009 (ip), vehicle: Klucel (hydroxypropylcellulose) (HPC).
Setting [18] is: dose: 400.0 mg/kg/injection, schedule: Q01DX009 (ip), vehicle: saline.
[19] abbreviates: dose: 400.0 mg/kg/injection, schedule: Q01DX009 (ip), vehicle: Klucel (hydroxypropylcellulose) (HPC).
Setting [20] is: dose: 400.0 mg/kg/injection, schedule: Q04DX003 (ip), vehicle: Klucel (hydroxypropylcellulose) (HPC).

SMILES strings stand for the structures. Values joined by “and” are separate entries in the source; they are usually repeats but may differ in a detail not shown here. Identical values can stand only once. Toxic doses and inconclusive results are not listed.

In the case of `CCCCCCC(C(=O)OCC)P(=O)(OCC)OCC` (stereo unspecified), the T/C under setting [1] is 101 % of control; the T/C (dose: 150.0 mg/kg/injection, schedule: Q01DX001 (ip), vehicle: saline) was 94 % of control; the T/C (dose: 300.0 mg/kg/injection, schedule: Q01DX001 (ip), vehicle: saline) was 100 % of control.

`CC(=O)Nc1ccc(NCc2cnc3nc(N)nc(N)c3n2)cc1`: the T/C by setting is: (dose: 20.0 mg/kg/injection, schedule: Q01DX009 (ip), vehicle: Klucel (hydroxypropylcellulose) (HPC)) 96 % of control; under setting [2], 104 % of control; (dose: 80.0 mg/kg/injection, schedule: Q01DX009 (ip), vehicle: Klucel (hydroxypropylcellulose) (HPC)) 96 % of control.

Turning to `CCOC(=O)Cc1nnn(C)n1`, the T/C reads like this: under setting [3], 93 % of control; under setting [4], 90 % of control.

Take `C=CCN(CC=C)C(=O)C1C2CC3OC(=O)C1C3C2` (stereo unspecified): the T/C is 94 % of control and 104 % of control under setting [3]; 109 % of control and 104 % of control under setting [4]; 94 % of control and 102 % of control under setting [5].

For the compound `C=CCNC(=O)Oc1cccc(NC(=O)CC)c1`, the T/C under setting [6] is 94 % of control, the T/C under setting [7] is 91 % of control and the T/C under setting [8] is 87 % of control.

Consider `Nc1ccc(Oc2ccc(S(=O)(=O)O)cc2)cc1`, for which the T/C is 93 % of control under setting [3], 94 % of control under setting [4] and 94 % of control under setting [5].

As for `CN(C)C(=O)CCOc1cccc2ccccc12`, under setting [1], the T/C is 100 % of control.

With `CC(=Nc1ccccc1)C1=C(O)C(CC(C)C)NC1=O` (stereo unspecified), the T/C reads like this: under setting [9], 95 % of control; under setting [10], 104 % of control; under setting [11], 101 % of control; under setting [12], 101 % of control.

Turning to `Cc1ccc(SC2CC3CC2C2COCC32)cc1` (stereo unspecified), the T/C runs as follows: (dose: 50.0 mg/kg/injection, schedule: Q01DX009 (ip), vehicle: Klucel (hydroxypropylcellulose) (HPC)) 98 % of control; under setting [13], 98 % of control; under setting [14], 90 % of control; under setting [15], 98 % of control.

Turning to `CC(C)(C)OC(=O)N1CCCC1C(=O)Oc1ccc([N+](=O)[O-])cc1` (stereo unspecified), the T/C was 102 % of control (dose: 25.0 mg/kg/injection, schedule: Q01DX009 (ip), vehicle: saline with Tween-80); 88 % of control (dose: 50.0 mg/kg/injection, schedule: Q01DX009 (ip), vehicle: saline with Tween-80); 93 % of control under setting [6].

Regarding `CCSc1ncnc2c1ncn2CN1CCOCC1`, the T/C was 116 % of control (dose: 15.0 mg/kg/injection, schedule: Q01DX009 (ip), vehicle: saline); 113 % of control under setting [2]; 103 % of control and 111 % of control (dose: 45.0 mg/kg/injection, schedule: Q01DX009 (ip), vehicle: saline); 100 % of control (dose: 50.0 mg/kg/injection, schedule: Q04DX003 (ip), vehicle: Klucel (hydroxypropylcellulose) (HPC)); 116 % of control (dose: 60.0 mg/kg/injection, schedule: Q01DX009 (ip), vehicle: Klucel (hydroxypropylcellulose) (HPC)); 103 % of control and 111 % of control (dose: 65.0 mg/kg/injection, schedule: Q01DX009 (ip), vehicle: saline). Further, the T/C reads like this: (dose: 66.0 mg/kg/injection, schedule: Q01DX009 (ip), vehicle: saline) 116 % of control; under setting [16], 108 % of control; under setting [14], 105 % of control; under setting [3], 115 % of control; (dose: 120.0 mg/kg/injection, schedule: Q01DX009 (ip), vehicle: saline) 177 % of control; (dose: 150.0 mg/kg/injection, schedule: Q01DX009 (ip), vehicle: saline) 164 % of control and 168 % of control. Further, the T/C runs as follows: (dose: 150.0 mg/kg/injection, schedule: Q04DX003 (ip), vehicle: saline) 111 % of control; (dose: 175.0 mg/kg/injection, schedule: Q01DX009 (ip), vehicle: saline) 151 % of control; under setting [17], 173 % of control; under setting [15], 109 % of control; (dose: 220.0 mg/kg/injection, schedule: Q01DX009 (ip), vehicle: saline) 160 % of control; (dose: 220.0 mg/kg/injection, schedule: Q04DX003 (ip), vehicle: saline) 119 % of control. For the same compound, the T/C is, setting by setting: (dose: 225.0 mg/kg/injection, schedule: Q01DX009 (ip), vehicle: saline) 122 % of control; (dose: 265.0 mg/kg/injection, schedule: Q01DX009 (ip), vehicle: saline) 95 % of control; (dose: 330.0 mg/kg/injection, schedule: Q01DX009 (ip), vehicle: saline) 107 % of control; under setting [18], 88 % of control.

In the case of `C1CCC(N=C(NC2CCCCC2)OC2CCCCC2)CC1`, the T/C runs as follows: (dose: 11.1 mg/kg/injection, schedule: Q01DX Z (ip), vehicle: methylcellulose (MC)) 97 % of control; (dose: 16.6 mg/kg/injection, schedule: Q01DX Z (ip), vehicle: methylcellulose (MC)) 89 % of control; (dose: 25.0 mg/kg/injection, schedule: Q01DX Z (ip), vehicle: methylcellulose (MC)) 101 % of control.

Consider `Cc1c2ccccc2c(C)c2c1cc(C(=O)O)c1ccccc12`, for which the T/C was 115 % of control (dose: 200.0 mg/kg/injection, schedule: Q04DX002 (ip), vehicle: Klucel (hydroxypropylcellulose) (HPC)) and 101 % of control (dose: 400.0 mg/kg/injection, schedule: Q04DX002 (ip), vehicle: Klucel (hydroxypropylcellulose) (HPC)).

Take `C(=N\N1CCN(/N=C/c2ccc(OCc3ccccc3)cc2)CC1)/c1ccc(OCc2ccccc2)cc1`: the T/C (dose: 100.0 mg/kg/injection, schedule: Q01DX001 (ip), vehicle: saline) was 102 % of control; the T/C (dose: 200.0 mg/kg/injection, schedule: Q01DX001 (ip), vehicle: saline) is 96 % of control; the T/C (dose: 400.0 mg/kg/injection, schedule: Q01DX001 (ip), vehicle: saline) is 93 % of control.

Regarding `COc1cc(C=O)ccc1OCc1ccccc1`, the T/C is 96 % of control and 93 % of control under setting [6]; 110 % of control (dose: 100.0 mg/kg/injection, schedule: Q04DX003 (ip), vehicle: saline with Tween-80); 96 % of control under setting [7]; 94 % of control (dose: 200.0 mg/kg/injection, schedule: Q04DX003 (ip), vehicle: saline with Tween-80); 98 % of control and 93 % of control under setting [8]; 100 % of control (dose: 400.0 mg/kg/injection, schedule: Q04DX003 (ip), vehicle: saline with Tween-80).

For `c1ccc(CNCCOB(OCCNCc2ccccc2)OCCNCc2ccccc2)cc1`, the T/C under setting [13] was 94 % of control; the T/C under setting [14] is 98 % of control; the T/C under setting [17] was 94 % of control; the T/C under setting [15] is 111 % of control; the T/C under setting [19] was 97 % of control; the T/C under setting [20] is 95 % of control.

For the compound `C=Cc1cccc[n+]1[O-]`, the T/C is, setting by setting: under setting [16], 115 % of control; (dose: 200.0 mg/kg/injection, schedule: Q01DX009 (ip), vehicle: saline) 102 % of control; under setting [18], 102 % of control.

Turning to `CC1Cc2cccc3ccc(=O)n(c23)C1` (stereo unspecified), the T/C was 91 % of control under setting [10], 100 % of control under setting [11] and 98 % of control under setting [12].

`CCCCCCCCCC1=NN(C2=NCCCC2)C(=O)C1`: the T/C is, setting by setting: under setting [14], 100 % of control; under setting [15], 101 % of control; under setting [20], 95 % of control.

As to `O=C1/C(=C\c2ccccc2)Oc2cc(O)c(O)cc21`, the T/C (dose: 100.0 mg/kg/injection, schedule: Q01DX001 (ip), vehicle: saline with Tween-80) was 98 % of control.

Turning to `COC1=C(NC2CCCCC2)C(=O)C(OC)=C(NC2CCCCC2)C1=O`, the T/C is, setting by setting: under setting [9], 103 % of control; under setting [10], 101 % of control; under setting [13], 86 % of control; under setting [14], 96 % of control; under setting [11], 101 % of control; under setting [17], 98 % of control. The T/C is 94 % of control under setting [15], 103 % of control under setting [12], 91 % of control under setting [19] and 94 % of control under setting [20].
